# Reference: US4683240A, “Pharmaceutical composition containing an imidazolidinetrione derivative or pharmaceutically acceptable salt thereof” (Nippon Zoki Pharmaceutical Co., Ltd., priority 1985, dated 1987)
# Where two headings read alike, the source gives them in different places.
# Experiments:
# Serum Free Fatty Acid = assay: Hypolipidemic effect: serum free fatty acid; type: in vivo, rat (Wistar-strain); details: 100 mg/kg oral, 2 h; for Serum Free Fatty Acid Level: control 0.53 ± 0.03 (compounds 2-12), 0.52 ± 0.03 (compounds 15-24); for inhibition in vivo at 100 mg/kg: Rattus norvegicus, vs control, read-out: Serum Free Fatty Acid Decrease
# Method: (§1) The test drugs suspended in 0.5% aqueous C.M.C. solution were orally administered to groups of 8 Wistar-strain male rats (weighing about 185 g) which were fasted for 18 to 20 hours. 2 hours later, the serum was obtained in the same manner described in (2). Serum triglyceride was measured according to the GPO-p-chlorophenol colorimetric determination [Richard W. Spayd et al., Clinical Chemistry, 24, 1343 (1978)], serum free fatty acid was measured according to the Acyl CoA Synthetase-Acyl CoA Oxidase method [Shimizu S. et al., Biochem. Biophys. Res. Commun., 91, 108 (1979)], free fatty acid was measured according to the enzymatic method [Charles C. Allain et al., Clin. Chem., 20, No. 4, 470 (1974)] and total cholesterol was measured according to the enzymatic method [Takayama M. et al., Clinica Chimica Acta, 79, 93 (1977)]. Asterisks indicate significant differences (*: p<0.05, **: p<00.01, ***: p<0.001) from the control.
# Serum Triglyceride = assay: Hypolipidemic effect: serum triglyceride; type: in vivo, rat (Wistar-strain); details: 100 mg/kg oral, 2 h; for Serum Triglyceride Level: control 65 ± 5 (compounds 2-12), 57 ± 4 (compounds 15-29); for inhibition in vivo at 100 mg/kg: Rattus norvegicus, vs control, read-out: Serum Triglyceride Decrease
# Method: as §1
# Serum Phospholipid = assay: Hypolipidemic effect: serum phospholipid; type: in vivo, rat (Wistar-strain); details: 100 mg/kg oral, 2 h; for Serum Phospholipid Level: control 79 ± 2 (compounds 2-12), 72 ± 2 (compounds 15-29); for inhibition in vivo at 100 mg/kg: Rattus norvegicus, vs control, read-out: Serum Phospholipid Decrease
# Method: as §1
# Blood Glucose = assay: Hypoglycemic effect in glucose-loaded fasted rats (blood glucose); type: in vivo, rat (Wistar-strain); details: 2 h
# Method: Groups of 7 Wistar-strain male rats (weighing about 200 g) which were fasted for 18 hours were used for measurement of hypoglycemic effect according to the modified method by Dulin et al. [Dulin, W. L. et al., Proc. Soc. Expl. Med., 107, 245 (1961)]. That is, 0.5 ml/100 g of 20% aqueous solution of glucose was subcutaneously administered to the backs of rats to prevent a decrease in blood glucose level because of the fasting. Immediately thereafter the test drug suspended in 0.5% aqueous C.M.C. solution was orally given, and 2 hours later, the animals underwent laparotomy under pentobarbital anesthesia, then blood was drawn from the vena cava. The obtained blood sample was allowed to stand for 30 minutes to complete the coagulation and was centrifuged to obtain the serum. Blood sugar level was measured according to the mutalotase GOD method [Trinder, Ann. Clin. Biochem., 6, 24 […]]. Asterisks indicate significant differences (*: p<0.05, **: p<0.01, ***: p<0.001) from the control.
# [1] = Acute toxicity test (oral); design: species or system mouse (ddY-strain); details: mouse, in vivo, male ddY mice, fasted 20 h, deaths over 7 days
# Method: The test compounds of the present invention suspended in 0.5% aqueous solution of carboxymethylcellulose (C.M.C.) were orally administered to groups of 4 to 6 ddY-strain male mice (weighing about 19 g) which had fasted for 20 hours. The lethal dose was determined by the number of deaths for 7 days thereafter.
# Total Serum Cholesterol = assay: Hypolipidemic effect: total serum cholesterol; type: in vivo, rat (Wistar-strain); details: 100 mg/kg oral, 2 h
# Method: as §1
# [2] = Rattus norvegicus, Table 2, 100 mg/kg oral, vs control, read-out: Blood Glucose Decrease
# [3] = Table 2, 100 mg/kg oral, control 133 ± 6
SMILES,Serum Free Fatty Acid Level (Serum Free Fatty Acid) [mEq/l],inhibition in vivo at 100 mg/kg (Serum Free Fatty Acid) [%],Serum Triglyceride Level (Serum Triglyceride) [mg/dL],inhibition in vivo at 100 mg/kg (Serum Triglyceride) [%],Serum Phospholipid Level (Serum Phospholipid) [mg/dL],inhibition in vivo at 100 mg/kg (Serum Phospholipid) [%],"inhibition in vivo at 12.5 mg/kg (Blood Glucose; Rattus norvegicus, Table 2, 12.5 mg/kg oral, vs control, read-out: Blood Glucose Decrease) [%]","inhibition in vivo at 25 mg/kg (Blood Glucose; Rattus norvegicus, Table 2, 25 mg/kg oral, vs control, read-out: Blood Glucose Decrease) [%]","inhibition in vivo at 50 mg/kg (Blood Glucose; Rattus norvegicus, Table 2, 50 mg/kg oral, vs control, read-out: Blood Glucose Decrease) [%]",inhibition in vivo at 100 mg/kg (Blood Glucose; [2]) [%],"Blood Glucose Level (Blood Glucose; Table 2, 12.5 mg/kg oral, control 133 ± 6) [mg/dL]","Blood Glucose Level (Blood Glucose; Table 2, 25 mg/kg oral, control 133 ± 6) [mg/dL]","Blood Glucose Level (Blood Glucose; Table 2, 50 mg/kg oral, control 133 ± 6) [mg/dL]",Blood Glucose Level (Blood Glucose; [3]) [mg/dL],LD50 at 168 h [1] [mg/kg],"Total Serum Cholesterol Level (Total Serum Cholesterol; control 44 ± 2 (compounds 4-12), 41 ± 1 (compounds 15-29)) [mg/dL]","inhibition in vivo at 100 mg/kg (Total Serum Cholesterol; Rattus norvegicus, vs control, read-out: Total Serum Cholesterol Decrease) [%]","inhibition in vivo at 100 mg/kg (Blood Glucose; Rattus norvegicus, Table 3, 100 mg/kg oral, vs control, read-out: Blood Glucose Decrease) [%]","Blood Glucose Level (Blood Glucose; Table 3, 100 mg/kg oral, control 133 ± 4) [mg/dL]"
"CN1C(=O)NC(=O)C1=O [compound 2, 1-methylimidazolidinetrione]",0.25 ± 0.03,52.8,22 ± 1,66.2,59 ± 1,25.3,18,25.6,31.6,25.6,109 ± 5,99 ± 2,91 ± 4,99 ± 5,~900,–,–,–,–
"O=C1NC(=O)N(Cc2ccccc2)C1=O [compound 15, 1-benzylimidazolidinetrione]",0.44 ± 0.02,15.4,30 ± 1,47.4,52 ± 1,27.8,–,–,–,–,–,–,–,–,~1000,33 ± 1,19.5,15.8,112 ± 3
"CCN1C(=O)NC(=O)C1=O [compound 3, 1-ethylimidazolidinetrione]",–,–,–,–,–,–,–,–,–,24.8,–,–,–,100 ± 2,~700,–,–,–,–
